Data: EP3075724A1, “SOLID FORM OF AGOMELATINE” (F.I.S.- Fabbrica Italiana Sintetici S.p.A., priority 2015, dated 2016)

Columns and labels:
Kinetic dissolution test = format: physicochemical; settings: 200 mg tablet, 100 mL saline solution, paddle 100 rpm, 37 °C
Experimental: The tests were performed in duplicate on 13 mm tablets containing 200 mg agomelatine (form I) or agomelatine pyruvic acid cocrystal, which were prepared on a Digital Hydraulic Press at a force of about 8 metric tons. The tablets were placed in 100 mL of saline solution in a paddle apparatus at 100 rpm and 37 °C ± 0.5 °C. A 3 mL sample was withdrawn from each vessel at fixed time points, filtered through a 0.45 µm filter (discarding the first 1 mL), analyzed by HPLC, and compared to a previously prepared reference standard calibration curve. Immediately after each sampling, the solutions in the vessels were replenished with 3 mL of saline.

[1] = Stability tests (chemical stability by HPLC); format: physicochemical
Experimental: Agomelatine pyruvic acid cocrystal according to Example 1 was subjected to stability tests for seven days at 25 °C, 60 % RH and 40 °C, 75 % RH, respectively.

[2] = cited from earlier work
[3] = 5 min, Ø (average of #1 and #2)
[4] = 15 min, Ø (average of #1 and #2)
[5] = 30 min, Ø (average of #1 and #2)
[6] = 45 min, Ø (average of #1 and #2)
[7] = 60 min, Ø (average of #1 and #2)
[8] = 90 min, Ø (average of #1 and #2)
[9] = 120 min, Ø (average of #1 and #2)
[10] = 180 min, Ø (average of #1 and #2)
[11] = 240 min, Ø (average of #1 and #2)
[12] = 300 min, Ø (average of #1 and #2)
[13] = 360 min, Ø (average of #1 and #2)
[14] = 420 min, Ø (average of #1 and #2)

Row | Structure (SMILES) | kinetic dissolution in aqueous medium (Kinetic dissolution test; 5 min, #1) [µg/mL] | kinetic dissolution in aqueous medium (Kinetic dissolution test; 5 min, #2) [µg/mL] | kinetic dissolution in aqueous medium (Kinetic dissolution test; [3]) [µg/mL] | kinetic dissolution in aqueous medium (Kinetic dissolution test; 15 min, #1) [µg/mL] | kinetic dissolution in aqueous medium (Kinetic dissolution test; 15 min, #2) [µg/mL] | kinetic dissolution in aqueous medium (Kinetic dissolution test; [4]) [µg/mL] | kinetic dissolution in aqueous medium (Kinetic dissolution test; 30 min, #1) [µg/mL] | kinetic dissolution in aqueous medium (Kinetic dissolution test; 30 min, #2) [µg/mL] | kinetic dissolution in aqueous medium (Kinetic dissolution test; [5]) [µg/mL] | kinetic dissolution in aqueous medium (Kinetic dissolution test; 45 min, #1) [µg/mL] | kinetic dissolution in aqueous medium (Kinetic dissolution test; 45 min, #2) [µg/mL] | kinetic dissolution in aqueous medium (Kinetic dissolution test; [6]) [µg/mL] | kinetic dissolution in aqueous medium (Kinetic dissolution test; 60 min, #1) [µg/mL] | kinetic dissolution in aqueous medium (Kinetic dissolution test; 60 min, #2) [µg/mL] | kinetic dissolution in aqueous medium (Kinetic dissolution test; [7]) [µg/mL] | kinetic dissolution in aqueous medium (Kinetic dissolution test; 90 min, #1) [µg/mL] | kinetic dissolution in aqueous medium (Kinetic dissolution test; 90 min, #2) [µg/mL] | kinetic dissolution in aqueous medium (Kinetic dissolution test; [8]) [µg/mL] | kinetic dissolution in aqueous medium (Kinetic dissolution test; 120 min, #1) [µg/mL] | kinetic dissolution in aqueous medium (Kinetic dissolution test; 120 min, #2) [µg/mL] | also measured
1 | COc1ccc2cccc(CCNC(C)=O)c2c1 [Form I, N-[2-(7-methoxynaphthalen-1-yl)ethyl]acetamide] | 3.39 | 4.38 | 3.89 | 8.20 | 9.32 | 8.76 | 14.80 | 15.58 | 15.19 | 22.55 | 23.81 | 23.18 | 30.05 | 31.53 | 30.79 | 47.49 | 50.84 | 49.17 | 55.73 | 58.72 | kinetic dissolution in aqueous medium (Kinetic dissolution test; [9]): 57.23 µg/mL; kinetic dissolution in aqueous medium (Kinetic dissolution test; 180 min, #1): 75.07 µg/mL; kinetic dissolution in aqueous medium (Kinetic dissolution test; 180 min, #2): 74.85 µg/mL; kinetic dissolution in aqueous medium (Kinetic dissolution test; [10]): 74.96 µg/mL; kinetic dissolution in aqueous medium (Kinetic dissolution test; 240 min, #1): 91.32 µg/mL; kinetic dissolution in aqueous medium (Kinetic dissolution test; 240 min, #2): 86.85 µg/mL; kinetic dissolution in aqueous medium (Kinetic dissolution test; [11]): 89.09 µg/mL; kinetic dissolution in aqueous medium (Kinetic dissolution test; 300 min, #1): 102.54 µg/mL; kinetic dissolution in aqueous medium (Kinetic dissolution test; 300 min, #2): 96.76 µg/mL; kinetic dissolution in aqueous medium (Kinetic dissolution test; [12]): 99.65 µg/mL; kinetic dissolution in aqueous medium (Kinetic dissolution test; 360 min, #1): 112.42 µg/mL; kinetic dissolution in aqueous medium (Kinetic dissolution test; 360 min, #2): 106.36 µg/mL; kinetic dissolution in aqueous medium (Kinetic dissolution test; [13]): 109.39 µg/mL; kinetic dissolution in aqueous medium (Kinetic dissolution test; 420 min, #1): 121.98 µg/mL; kinetic dissolution in aqueous medium (Kinetic dissolution test; 420 min, #2): 114.14 µg/mL; kinetic dissolution in aqueous medium (Kinetic dissolution test; [14]): 118.06 µg/mL
2 | COc1ccc2cccc(CCNC(C)=O)c2c1 [Pyruvic Acid Cocrystal] | 5.21 | 5.45 | 5.33 | 12.55 | 13.42 | 12.99 | 22.75 | 24.10 | 23.43 | 33.41 | 37.03 | 35.22 | 42.71 | 50.65 | 46.68 | 70.03 | 77.31 | 73.67 | 84.65 | 90.24 | chemical stability as determined by HPLC ([1]; seven days at 25 °C, 60 % RH): excellent chemical stability; chemical stability as determined by HPLC ([1]; seven days at 40 °C, 75 % RH): excellent chemical stability; kinetic dissolution in aqueous medium (Kinetic dissolution test; [9]): 87.45 µg/mL; kinetic dissolution in aqueous medium (Kinetic dissolution test; 180 min, #1): 114.37 µg/mL; kinetic dissolution in aqueous medium (Kinetic dissolution test; 180 min, #2): 114.58 µg/mL; kinetic dissolution in aqueous medium (Kinetic dissolution test; [10]): 114.48 µg/mL; kinetic dissolution in aqueous medium (Kinetic dissolution test; 240 min, #1): 131.99 µg/mL; kinetic dissolution in aqueous medium (Kinetic dissolution test; 240 min, #2): 131.80 µg/mL; kinetic dissolution in aqueous medium (Kinetic dissolution test; [11]): 131.9 µg/mL; kinetic dissolution in aqueous medium (Kinetic dissolution test; 300 min, #1): 144.64 µg/mL; kinetic dissolution in aqueous medium (Kinetic dissolution test; 300 min, #2): 144.74 µg/mL; kinetic dissolution in aqueous medium (Kinetic dissolution test; [12]): 144.69 µg/mL; kinetic dissolution in aqueous medium (Kinetic dissolution test; 360 min, #1): 155.52 µg/mL; kinetic dissolution in aqueous medium (Kinetic dissolution test; 360 min, #2): 156.49 µg/mL; kinetic dissolution in aqueous medium (Kinetic dissolution test; [13]): 156.01 µg/mL; kinetic dissolution in aqueous medium (Kinetic dissolution test; 420 min, #1): 165.30 µg/mL; kinetic dissolution in aqueous medium (Kinetic dissolution test; 420 min, #2): 163.14 µg/mL; kinetic dissolution in aqueous medium (Kinetic dissolution test; [14]): 164.22 µg/mL
3 | COc1ccc2cccc(CCNC(C)=O)c2c1 [agomelatine, N-[2-(7-methoxynaphthalen-1-yl)ethyl]acetamide] |  |  |  |  |  |  |  |  |  |  |  |  |  |  |  |  |  |  |  |  | solubility in various organic solvents ([2]; e.g. ethanol, methanol, methylene chloride, freely soluble): > 100 mg/mL; solubility in purified water ([2]; purified water, practically insoluble): < 0.1 mg/mL
